Experimental data reported in PubChem BioAssay AID256 (DTP/NCI, 2004).
Toxic doses and inconclusive results are not listed.

System: CD2F1 mice, L1210 leukemia ip, survival T/C
Test: NCI In Vivo Anticancer Drug Screen. Data for tumor model L1210 Leukemia (intraperitoneal) in CD2F1 (CDF1) mice
Details: higher = longer survival
Method in brief: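 Each value reflects a quotient of treated over vehicle control outcomes in mice with a transplanted tumor.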

With `CCCCC(=O)OCC(=O)[C@]1(O)Cc2c(O)c3c(c(O)c2[C@@H](OC2CC(NC(=O)C(F)(F)F)C(O)C(C)O2)C1)C(=O)c1c(OC)cccc1C3=O` (stereo partly specified) the T/C (endpoint: mean survival time, dose: 4.0 mg/kg/injection, schedule: Q01DX009 (ip), vehicle: Klucel (hydroxypropylcellulose) (HPC)) was 113 % of control, the T/C (endpoint: mean survival time, dose: 4.0 mg/kg/injection, schedule: Q01DX009 (ip), vehicle: water) was 97 % of control and the T/C (endpoint: mean survival time, dose: 8.0 mg/kg/injection, schedule: Q01DX009 (ip), vehicle: Klucel (hydroxypropylcellulose) (HPC)) was 118 % of control. The T/C (endpoint: mean survival time, dose: 8.0 mg/kg/injection, schedule: Q01DX009 (ip), vehicle: water) was 101 % of control, the T/C (endpoint: mean survival time, dose: 16.0 mg/kg/injection, schedule: Q01DX009 (ip), vehicle: water) was 106 % of control and the T/C (endpoint: mean survival time, dose: 32.0 mg/kg/injection, schedule: Q01DX009 (ip), vehicle: Klucel (hydroxypropylcellulose) (HPC)) was 150 % of control. The T/C (endpoint: mean survival time, dose: 32.0 mg/kg/injection, schedule: Q01DX009 (ip), vehicle: water) was 111 % of control, the T/C (endpoint: mean survival time, dose: 64.0 mg/kg/injection, schedule: Q01DX009 (ip), vehicle: Klucel (hydroxypropylcellulose) (HPC)) was 167 % of control and the T/C (endpoint: mean survival time, dose: 64.0 mg/kg/injection, schedule: Q01DX009 (ip), vehicle: water) was 113 % of control. For the same molecule, the T/C (endpoint: mean survival time, dose: 128.0 mg/kg/injection, schedule: Q01DX009 (ip), vehicle: Klucel (hydroxypropylcellulose) (HPC)) was 250 % of control, the T/C (endpoint: median survival time, dose: 13.0 mg/kg/injection, schedule: Q10HX004 (ip), vehicle: other) was 100 % of control and the T/C (endpoint: median survival time, dose: 21.6 mg/kg/injection, schedule: Q10HX004 (ip), vehicle: other) was 102 % of control. The T/C (endpoint: median survival time, dose: 36.0 mg/kg/injection, schedule: Q10HX004 (ip), vehicle: other) was 114 % of control, the T/C (endpoint: median survival time, dose: 60.0 mg/kg/injection, schedule: Q10HX004 (ip), vehicle: other) was 118 % of control and the T/C (endpoint: median survival time, dose: 100.0 mg/kg/injection, schedule: Q10HX004 (ip), vehicle: other) was 153 % of control.
In the case of `Cc1cc(=O)c(Cl)cc(=O)[nH]1`, the T/C (endpoint: mean survival time, dose: 12.5 mg/kg/injection, schedule: Q01DX001 (ip), vehicle: saline with Tween-80) is reported as 95 % of control and the T/C (endpoint: mean survival time, dose: 25.0 mg/kg/injection, schedule: Q01DX001 (ip), vehicle: saline with Tween-80) is reported as 95 % of control.
In the case of `CN(C)C(=O)Sc1c(S(=O)(=O)F)ccc(Cl)c1Cl`, the T/C (endpoint: mean survival time, dose: 100.0 mg/kg/injection, schedule: Q04DX002 (ip), vehicle: saline with Tween-80) is reported as 96 % of control, the T/C (endpoint: mean survival time, dose: 200.0 mg/kg/injection, schedule: Q04DX002 (ip), vehicle: saline with Tween-80) is reported as 96 % of control and the T/C (endpoint: mean survival time, dose: 400.0 mg/kg/injection, schedule: Q04DX002 (ip), vehicle: saline with Tween-80) is reported as 100 % of control.
For `COc1ccc(CCN(C=O)CCc2ccc(OC)c(OC)c2)cc1OC`, the T/C (endpoint: mean survival time, dose: 12.5 mg/kg/injection, schedule: Q01DX009 (ip), vehicle: other) was 98 % of control, the T/C (endpoint: mean survival time, dose: 25.0 mg/kg/injection, schedule: Q01DX009 (ip), vehicle: other) was 101 % of control and the T/C (endpoint: mean survival time, dose: 50.0 mg/kg/injection, schedule: Q01DX009 (ip), vehicle: other) was 93 % of control. For the same molecule, the T/C (endpoint: mean survival time, dose: 100.0 mg/kg/injection, schedule: Q01DX009 (ip), vehicle: other) was 103 % of control and the T/C (endpoint: mean survival time, dose: 200.0 mg/kg/injection, schedule: Q01DX009 (ip), vehicle: other) was 103 % of control.
For `CCCCN(C)N=Nc1ccc(C(N)=O)cc1`, the T/C (endpoint: mean survival time, dose: 18.75 mg/kg/injection, schedule: Q01DX009 (ip), vehicle: Klucel (hydroxypropylcellulose) (HPC)) was 107 % of control, the T/C (endpoint: mean survival time, dose: 37.5 mg/kg/injection, schedule: Q01DX009 (ip), vehicle: Klucel (hydroxypropylcellulose) (HPC)) was 113 % of control and the T/C (endpoint: mean survival time, dose: 75.0 mg/kg/injection, schedule: Q01DX009 (ip), vehicle: Klucel (hydroxypropylcellulose) (HPC)) was 121 % of control. The T/C (endpoint: mean survival time, dose: 150.0 mg/kg/injection, schedule: Q01DX009 (ip), vehicle: Klucel (hydroxypropylcellulose) (HPC)) was 106 % of control.
With `CCN(CC)CCOCCO` the T/C (endpoint: mean survival time, dose: 100.0 mg/kg/injection, schedule: Q01DX009 (ip), vehicle: saline) was 102 % of control and the T/C (endpoint: mean survival time, dose: 200.0 mg/kg/injection, schedule: Q01DX009 (ip), vehicle: saline) was 96 % of control.
